Where “and” joins values, the source holds several entries; their conditions need not be identical. Equal entries are not always repeated. Where two headings read alike, the source gives them in different places.
How the values were obtained:
CEM/dCK- [1] = test: 3H-TdR (3H-thymidine) incorporation assay at 72 hr; type: cell-based; details: for IC50: deoxycytidine kinase-deficient CCRF-CEM; for Factor* (Resistance Factor = Ratio of dCK- on Wild-type CCRF-CEM): ratio of IC50 CEM/dCK- to CCRF-CEM, 24 h
Experimental: (§1) Table of IC50 Values (μM) for Controls
(§2) Exposition of 24 hr to drug, wash, incubated for another 48 hr (total of 72 hr assay)
(§3) (3H-Thymidine Incorporation Assay)

H-460 = test: 3H-TdR (3H-thymidine) incorporation assay at 72 hr; type: cell-based, Human; details: 3H-TdR incorporation at 72 hr
CCRF-CEM = test: 3H-TdR (3H-thymidine) incorporation assay at 72 hr; type: cell-based; details: 3H-TdR incorporation at 72 hr
Experimental: as §1, §2, §3

SF-268 = test: 3H-TdR (3H-thymidine) incorporation assay at 72 hr; type: cell-based, Human; details: 3H-TdR incorporation at 72 hr
MCF-7 = test: 3H-TdR (3H-thymidine) incorporation assay at 72 hr; type: cell-based, Human; details: 3H-TdR incorporation at 72 hr
CEM/dCK- [2] = test: 3H-TdR incorporation at 72 hr (24 hr drug exposure, wash, 48 hr); type: cell-based; details: read-out: IC50 in μM (3H-TdR incorporation at 72 hr) CEM/dCK- 24 h; CCRF-CEM deoxycytidine kinase-deficient; 24 h drug exposure, 72 hr assay
Experimental: as §2, §3

[3] = Homo sapiens, CCRF-CEM, read-out: IC50 CEM/dCK- 24 h, 24 h drug exposure, wash, another 48 hr
[4] = Homo sapiens, NCI-H460, read-out: IC50 H-460 24 h, 24 h drug exposure, wash, another 48 hr
[5] = read-out: IC50 H-460 24 h, 24 h drug exposure, wash, another 48 hr
[6] = Homo sapiens, CCRF-CEM, read-out: IC50 CCRF-CEM 24 h, 24 h drug exposure, wash, another 48 hr
[7] = read-out: IC50 CCRF-CEM 24 h, 24 h drug exposure, wash, another 48 hr
[8] = read-out: IC50 CEM/dCK- 24 h, 24 h drug exposure, wash, another 48 hr
[9] = Homo sapiens, SF-268, read-out: IC50 SF-268 24 h, 24 h drug exposure, wash, another 48 hr
[10] = read-out: IC50 SF-268 24 h, 24 h drug exposure, wash, another 48 hr
[11] = Homo sapiens, MCF7, read-out: IC50 MCF-7 24 h, 24 h drug exposure, wash, another 48 hr
[12] = read-out: IC50 MCF-7 24 h, 24 h drug exposure, wash, another 48 hr

Row | SMILES | IC50 (CEM/dCK- [1]; [3]) | IC50 (H-460; [4]) | IC50 (CCRF-CEM; [6]) | IC50 (MCF-7; [11]) | IC50 (MCF-7; [12]) | further results
1 | CCCCNC(=O)OC[C@H]1OC[C@@H](n2ccc(N)nc2=O)O1 [Compound 48, BUTYL-CARBAMIC ACID 4- (4-AMINO-2-OXO-2H- PYRIMIDIN-1-YL)- [1,3]DIOXOLAN-2- YLMETHYL ESTER] | > 100000 nM | 340 nM |  |  |  | IC50 (H-460; [5]): 590 nM
2 | CCCCCCCCCCNC(=O)OC[C@H]1OC[C@@H](n2ccc(N)nc2=O)O1 [Compound 137, DECYL-CARBAMIC ACID 4- (4-AMINO-2-OXO-2H- PYRIMIDIN-1-YL)- [1,3]DIOXOLAN-2- YLMETHYL ESTER] | 84000 nM |  | 5000 nM |  |  | IC50 (CCRF-CEM; [7]): 6500 nM; IC50 (CEM/dCK- [1]; [8]): 53000 nM; IC50 (SF-268; [9]): 18400 nM; IC50 (SF-268; [10]): 16000 nM
3 | CCCCOC(C)OC[C@H]1OC[C@@H](n2ccc(N)nc2=O)O1 (some centres unmarked) [Compound 97, 4-AMINO-1-[2-(1-BUTOXY- ETHOXYMETHYL)- [1,3]DIOXOLAN-4-YL]-1H- PYRIMIDIN-2-ONE] | > 100000 nM | 22000 nM | 9200 nM | 5000 nM | 4000 nM | IC50 (CCRF-CEM; [7]): 5900 nM
4 | CC(C)(C)C(=O)OC[C@H]1OC[C@@H](n2ccc(N)nc2=O)O1 [Compound 279, 2,2-DIMETHYL-PROPIONIC ACID 4-(4-AMINO-2-OXO- 2H-PYRIMIDIN-1-YL)- [1,3]DIOXOLAN-2-YL METHYL ESTER] |  | 580 nM |  | 240 nM |  | IC50 (H-460; Homo sapiens, NCI-H460, read-out: IC50 H-460 (72 h), 72 h exposure): 73 nM; IC50 (SF-268; [9]): 390 nM; IC50 (SF-268; Homo sapiens, SF-268, read-out: IC50 SF-268 (72 h), 72 h exposure): 44 nM; IC50 (MCF-7; Homo sapiens, MCF7, read-out: IC50 MCF-7 (72 h), 72 h exposure): 21 nM
5 | CCCCCCN(CCCCCC)C(=O)OC[C@H]1OC[C@@H](n2ccc(N)nc2=O)O1 [Compound 135, DIHEXYLCARBAMIC ACID 4(S)-(4′-AMINO-2′-OXO- 2H-PYRIMIDIN-1′-YL)- [1,3]DIOXOLAN-2(S)- YLMETHYL ESTER] |  |  |  |  |  | IC50 (SF-268; [9]): 250 nM
6 | CC(C)c1ccc(NC(=O)OC[C@H]2OC[C@@H](n3ccc(N)nc3=O)O2)cc1 [Compound 127, (4-ISOPROPYL-PHENYL)- CARBAMIC ACID 4-(4- AMINO-2-OXO-2H- PYRIMIDIN-1-YL)- [1,3]DIOXOLAN-2- YLMETHYL ESTER] | > 100000 nM |  | 15000 nM | 16000 nM | 15000 nM | IC50 (CCRF-CEM; [7]): 22000 nM
7 | CC(C(=O)OC[C@H]1OC[C@@H](n2ccc(N)nc2=O)O1)c1ccccc1.Cl (some centres unmarked) [Compound 106] |  |  |  |  |  | Factor* (Resistance Factor = Ratio of dCK- on Wild-type CCRF-CEM) (CEM/dCK- [1]): 4,600
8 | CCCCC(C)(C)C(=O)OC[C@H]1OC[C@@H](n2ccc(/N=C\N(C)C)nc2=O)O1 [Compound 72, (2S,4S)-2-(2″- DIMETHYLHEXANOICOXYMETH YL)-4-(4′-N,N- DIMETHYLAMINOMETHYLENE- CYTOSIN-1′-YL)-1,3- DIOXOLANE] | 23000 nM | 18 nM |  | 15 nM | 17 nM | IC50 (H-460; [5]): 27 nM; IC50 (SF-268; [9]): 130 nM; IC50 (SF-268; [10]): 75 nM
9 | CCCCC(CC)C(=O)Nc1ccn([C@@H]2CO[C@H](CO)O2)c(=O)n1 (stereo in doubt) [Compound 99, 2-ETHYL-HEXANOIC ACID [1-(2-HYDROXYMETHYL- [1,3]DIOXOLAN-4-YL)-2- OXO-1,2-DIHYDRO- PYRIMIDIN-4-YL]-AMIDE] | > 100000 nM |  | 5000 nM | 6300 nM |  | Factor* (Resistance Factor = Ratio of dCK- on Wild-type CCRF-CEM) (CEM/dCK- [1]): >20; IC50 (SF-268; [9]): 33000 nM
10 | CC(C)[C@@H]1CC[C@@H](C)C[C@H]1OC(=O)Nc1ccn([C@@H]2CO[C@H](CO)O2)c(=O)n1 [Compound 94, [1-(2-Hydroxymethyl-[1,3]dioxolan-4-yl)-2-oxo-1,2-dihydro-pyrimidin-4-yl]-carbamic acid 2-isopropyl-5-methyl-cyclohexyl ester] | 51000 nM |  |  | 24000 nM | 13000 nM | IC50 (CEM/dCK- [1]; [8]): 85000 nM
11 | CC(C)(C(=O)OC[C@H]1OC[C@@H](n2ccc(N)nc2=O)O1)c1ccccc1[N+](=O)[O-] [Compound 155, (2S,4S)-2-[2″-(2″′- NITROPHENYL)-2″- METHYLPROPIONYLOXYMETHY L]-4-CYTOSIN-1′-YL-1,3- DIOXOLANE] | > 100000 nM |  |  |  |  | 
12 | CCNc1ccn([C@@H]2CO[C@H](COCC)O2)c(=O)n1 [Compound 93, 1-(2′(S)-ETHOXYMETHYL- [1,3]DIOXOLAN-4′(S)- YL)-4-ETHYLAMINO-1H- PYRIMIDIN-2-ONE] | > 100000 nM |  |  |  |  | IC50 (SF-268; [9]): > 100000 nM
13 | CC(C)(C)OC(=O)N(CCCCCC(=O)OC[C@H]1OC[C@@H](n2ccc(N)nc2=O)O1)Cc1ccccc1 [Compound 66, 6-(Benzyl-tert-butoxycarbonyl-amino)-hexanoic acid 4-(4-amino-2-oxo-2H-pyrimidin-1-yl)-[1,3]dioxolan-2-ylmethyl ester] |  |  |  | < 0.1 nM | 0.074 nM | 
14 | CC(CCCCN(Cc1ccccc1)C(=O)OC(C)(C)C)C(=O)OC[C@H]1OC[C@@H](n2ccc(/N=C/N(C)C)nc2=O)O1 (some centres unmarked) [Compound 149, 6-(Benzyl-tert-butoxycarbonyl-amino)-methyl-hexanoic acid 4-[4-(dimethylamino-methyleneamino)-2-oxo-2H-pyrimidin-1-yl]-[1,3]dioxolan-2-ylmethyl ester] | 2000 nM |  | < 0.1 nM |  |  | IC50 (CCRF-CEM; [7]): 0.12 nM; IC50 (CEM/dCK- [1]; [8]): > 1800 nM
15 | CCCCC(C)C(=O)Nc1ccn([C@@H]2CO[C@H](CO)O2)c(=O)n1 (stereo in doubt) [Compound 96, 2-METHYL-HEXANOIC ACID [1-(2-HYDROXYMETHYL- [1,3]DIOXOLAN-4-YL)-2- OXO-1,2-DIHYDRO- PYRIMIDIN-4-YL]-AMIDE] | > 100000 nM |  | 1800 nM | 190 nM | 210 nM | IC50 (CCRF-CEM; [7]): 1900 nM
16 | Cc1cccc(C)c1C(=O)OC[C@H]1OC[C@@H](n2ccc(/N=C\N(C)C)nc2=O)O1 [Compound 87, (2S,4S)-2-(2″,6″- DIMETHYLBENZOYLOXYMETHY L)-4-(4′-N,N- DIMETHYLAMINOMETHLYENE- CYTOSIN-1′-YL)-1,3- DIOXOLANE] | > 100000 nM |  |  |  |  | 
17 | CN(C)/C=N/c1ccn([C@@H]2CO[C@H](COC(=O)C(C)(C)CCC(=O)N(Cc3ccccc3)C(=O)OC(C)(C)C)O2)c(=O)n1 [Compound 166, 5-(Benzyl-tert-butoxycarbonyl-amino)-2,2-dimethyl-5-oxo-pentanoic acid 4-[4-(dimethylamino-methyleneamino)-2-oxo-2H-pyrimidin-1-yl]-[1,3]dioxolan-2-ylmethyl ester] |  |  |  |  |  | IC50 (CEM/dCK- [2]): 10 µM
18 | CC(C)[C@@H]1CC[C@@H](C)C[C@H]1OC(=O)OC[C@H]1OC[C@@H](n2ccc(N)nc2=O)O1 [Compound 95, Carbonic acid 4-(4-amino-2-oxo-2#H!- pyrimidin-1-yl)-[1,3]dioxolan-2-ylmethyl ester 2-isopropyl-5-methyl-cyclohexyl ester] |  | < 0.1 nM |  | 150 nM | 100 nM | 
19 | CC(=O)OC[C@H]1OC[C@@H](n2ccc(N)nc2=O)O1 [Compound 27] |  |  |  |  |  | IC50 (H-460; read-out: IC50 H-460 (72 h), 72 h exposure): 5.3 nM; IC50 (SF-268; read-out: IC50 SF-268 (72 h), 72 h exposure): 23 nM; IC50 (MCF-7; read-out: IC50 MCF-7 (72 h), 72 h exposure): 7.3 nM
20 | CC(C)(C(=O)Nc1ccn([C@@H]2CO[C@H](CO)O2)c(=O)n1)c1ccccc1[N+](=O)[O-] [Compound 60, (2S,4S)--2- HYDROXYMETHYL-4-N-[2″- (2″′-NITROPHENYL)-2″- METHYLPROPIONYL]- CYTOSINE-1′-YL-1,3- DIOXOLANE] | 2900 nM | 2000 nM | 290 nM | 860 nM | 950 nM | IC50 (CCRF-CEM; [7]): 310 nM; IC50 (CEM/dCK- [1]; [8]): 1800 nM; IC50 (H-460; [5]): 3100 nM
21 | CC(C)c1cc(C(C)C)c(C(=O)OC[C@H]2OC[C@@H](n3ccc(N)nc3=O)O2)c(C(C)C)c1 [Compound 100, 2,4,6-Triisopropyl-benzoic acid 4-(4-amino-2-oxo-2H-pyrimidin-1-yl)-[1,3]dioxolan-2-ylmethyl ester] |  | 30 nM |  |  |  | IC50 (H-460; [5]): 44 nM
22 | CCCCCCOC(=O)Nc1ccn([C@@H]2CO[C@H](CO)O2)c(=O)n1 [Compound 61, [1-(2-HYDROXYMETHYL- [1,3]DIOXOLAN-4-YL)-2- OXO-1,2-DIHYDRO- PYRIMIDIN-4-YL]- CARBAMIC ACID HEXYL ESTER] | > 100000 nM |  |  |  |  | 
23 | Nc1ccn([C@@H]2CO[C@H](COCc3ccccc3)O2)c(=O)n1 [Compound 98, (2S,4S) 4-AMINO-1-(2- BENZYLOXYMETHYL- [1,3]DIOXOLAN-4-YL)-1H- PYRIMIDIN-2-ONE] | > 100000 nM |  |  | 130 nM | 150 nM and 220 nM | 

Source: patent US20030013660A1, “Dioxolane analogs for improved inter-cellular delivery” (Shire BioChem Inc., priority 2000, published 2003)
